The values below are quoted from earlier work in patent US8940662B2, “Methods for controlling pests” (BASF Corporation, priority 2009, dated 2015).

Each structure is given as a SMILES string.

One series relates to termites. The following applies: general statement.
In another series the test system is ants. The following applies: general statement.

For the molecule `N#Cc1nn(-c2c(Cl)cc(C(F)(F)F)cc2Cl)c(N)c1[S+]([O-])C(F)(F)F` (racemic) [fipronil, (±)-5-amino-1-(2,6-dichloro-α,α,α-trifluoro-p-tolyl)-4-trifluoromethylsulfinylpyrazole-3-carbonitrile], the “Toxic dose to termites” value with termites was 2 nanograms per termite. The “Toxic dose to ants” value with ants is recorded as “about 1 nanogram per ant”.
